Measured values published in patent US9427426B2 (priority 2008, dated 2016).
Like-named read-outs stand apart in the source and are kept apart here.

How the values were obtained:
[1] = cited from earlier work; for solubility in water, in words: water (NAC: at 20° C.)
[2] = system: rat; details: cited from earlier work
[3] = system: rats intoxicated with paracetamol; assay: Example 4: erdosteine i.v. vs NAC i.v. in rats intoxicated with paracetamol; format: in vivo, Wistar rats
From the text: Experiment has been carried on in parallel with experiment of example 3 and results of animals not intoxicated not treated (lot1) have been used as reference.
(§1) 3. […] NAC has been dissolved in bidistilled water.
Animals have been monitored as described in example 3.
Mortality has been recorded.

[4] = system: rats intoxicated with mercury (mercury chloride); assay: Example 2: erdosteine i.v. vs NAC i.v. in rats intoxicated with mercury; format: in vivo, Wistar rats
Description: (§2) The animals have been randomly divided in 11 lots.
as §1
(§3) 4. […] Erdosteine has been solubilized in bidistilled water and sodium hydrogen carbonate equimolar, the resulting solution being administered in volume of 10 ml/kg. Preliminarily we tested the different molar ratios erdosteine/sodium hydrogen carbonate in a range between 0.5:1 and 1.5:1 and the volume to be solubilized. […] Animals Monitoring:
(§4) Mortality has been recorded. […] Few animals have been collected urine eliminated spontaneously for Pb—Hg analysis. Animals have been sacrificed under general anesthesia with ether. 6 animals of each group (3 males and 3 females) have been randomly selected for macroscopic and microscopic anatomic-pathological examination.

[5] = system: rats intoxicated with lead (lead acetate); assay: Example 1: erdosteine per os vs NAC per os in rats intoxicated with lead; format: in vivo, Wistar rats; details: erdosteine 875 mg/kg or NAC 500 mg/kg per os once a day for 7 days
Description: (§5) 3. […] NAC has been mixed with bidistilled water, the resulting solution being administered in volume of 10 ml/kg.
(§6) 4. […] Erdosteine has been mixed with bidistilled water and sodium hydrogen carbonate equimolar, the resulting solution being administered in volume of 10 ml/kg.
as §4

[6] = system: rats intoxicated with mercury (mercury chloride); assay: Example 1: erdosteine per os vs NAC per os in rats intoxicated with mercury; format: in vivo, Wistar rats; details: erdosteine 875 mg/kg or NAC 500 mg/kg per os once a day for 7 days
Description: as §5, §6, §4

[7] = system: rats intoxicated with lead (lead acetate); assay: Example 2: erdosteine i.v. vs NAC i.v. in rats intoxicated with lead; format: in vivo, Wistar rats
Description: as §2, §1, §3, §4

[8] = paracetamol […] per os, erdosteine 350 mg/kg i.v. or NAC 114 mg/kg i.v. once a day for 7 days, 30 animals/lot
[9] = paracetamol intoxicated, erdosteine 350 mg/kg i.v. or NAC 114 mg/kg i.v., 7 days
[10] = survivors at 7 days, paracetamol intoxicated, erdosteine 350 mg/kg i.v. or NAC 114 mg/kg i.v.
[11] = Hg intoxicated (mercury chloride 42 mg/kg per os), ERDO1 = erdosteine 350 mg/kg i.v. or NAC 114 mg/kg i.v. once a day for 7 days, 35 animals/lot
[12] = Hg intoxicated, ERDO1 = erdosteine 350 mg/kg i.v. or NAC 114 mg/kg i.v. once a day for 7 days
[13] = survivors after 7 days, Hg intoxicated, ERDO1 = erdosteine 350 mg/kg i.v. or NAC 114 mg/kg i.v. once a day
[14] = Pb intoxicated (lead acetate 4665 mg/kg per os), 30 animals/lot
[15] = survivors after 7 days, Pb intoxicated
[16] = Hg intoxicated (mercury chloride 42 mg/kg per os), 30 animals/lot
[17] = survivors after 7 days, Hg intoxicated
[18] = Pb intoxicated (lead acetate 4665 mg/kg per os), ERDO1 = erdosteine 350 mg/kg i.v. or NAC 114 mg/kg i.v. once a day for 7 days, 35 animals/lot
[19] = Pb intoxicated, ERDO1 = erdosteine 350 mg/kg i.v. or NAC 114 mg/kg i.v. once a day for 7 days
[20] = survivors after 7 days, Pb intoxicated, ERDO1 = erdosteine 350 mg/kg i.v. or NAC 114 mg/kg i.v. once a day

OCC(S)CS (centres unmarked) [Dimercaprol, 2,3,Dimercapto1-propanol]
solubility in water, in words [1]: hardly soluble | LD50 i.v. ([2]; rat, i.v.): 105 mg/kg

CC(=O)N[C@@H](CS)C(=O)O [NAC, N-Acetylcysteine]
Mortality percentual [3, 8]: 20% | Total mortality [3, 8]: 6/30 | Renal aggression (urine summary), in words ([3]; paracetamol intoxicated, erdosteine 350 mg/kg i.v. or NAC 114 mg/kg i.v.): antagonized | Urine summary: Bil. [3, 9]: 3 mg/dL | Urine summary: Chet [3, 9]: neg | Urine summary: Density [3, 9]: 1015 | Urine summary: Erythrocyte [3, 9]: 25 µL⁻¹ | Urine summary: Glucose [3, 9]: neg | Urine summary: Leuc [3, 9]: 25 µL⁻¹ | Urine summary: Prot. [3, 9]: 75 mg/dL | Urine summary: UBG [3, 9]: 1 mg/dL | Urine summary: pH [3, 9]: 6.8 | ALT [3, 10]: 206.6^1 | AST [3, 10]: 42.6^2 | HCT [3, 10]: 41.7^1 | PLT [3, 10]: 550.8^1 | RBC [3, 10]: 7.20^1 | Urea [3, 10]: 74.76^1 | Uric acid [3, 10]: 2.574^1 | solubility in water, in words [1]: slightly soluble | LD50 i.v. ([2]; rat, in vivo, iv): 1140 mg/kg | LD50 per os ([2]; rat, in vivo): 5050 mg/kg | Mortalitaty total [4, 11]: 30 ^3 | Mortality in percent [4, 11]: 85.7% | Anatomical pathology: lesions [4, 12]: least severe damages | Hg in urine mean values [4, 12]: 13.9 mg/L | Creatinine mean values [4, 13]: 1.06 ^4 mK/dl | Haematocrit mean values [4, 13]: 38.97 ^3 | Haemoglobin mean values [4, 13]: 14.57 ^3 g/dl | Leucocytes mean values [4, 13]: 10.5 ^3 | Urea mean values [4, 13]: 79.52 ^4 mg/dl | Uric acid mean value [4, 13]: 2.02 ^4 mg/dl | erythrocytes mean values [4, 13]: 6.76 ^3 *10^6/mm^3 | Mortality in percent [5, 14]: 30% | Mortality total [5, 14]: 9 | Anatomical pathology: lesions (macroscopic and microscopic examination) ([5]; Pb intoxicated): did not improve lesions | Pb in urine, Pb mean values ([5]; Pb intoxicated, GS MS Varian 4100): 13.2 mg/L | Creatinine mean values [5, 15]: 0.66 ^3 mK/dl | Haematocrit mean values [5, 15]: 41.42^3 | Haemoglobin mean values [5, 15]: 13.58^3 g/dl | Leucocytes mean values [5, 15]: 6.82^3 | Urea mean values [5, 15]: 104.15 ^3 mg/dl | Uric acid mean value [5, 15]: 2.36 ^1 mg/dl | erythrocytes mean values [5, 15]: 6.55^3 *10^6/mm^3 | Mortality in percent [6, 16]: 33.3% | Mortality total [6, 16]: 10^2^ | Anatomical pathology: lesions (macroscopic and microscopic examination) ([6]; Hg intoxicated): less important lesions | Hg in urine mean values ([6]; Hg intoxicated, GS MS Varian 4100): 11.5 mg/L | Creatinine mean values [6, 17]: 0.56 ^3 mK/dl | Haematocrit mean values [6, 17]: 41.50^3 | Haemoglobin mean values [6, 17]: 13.58^3 g/dl | Leucocytes mean values [6, 17]: 6.72^3 | Urea mean values [6, 17]: 85.45 ^3 mg/dl | Uric acid mean value [6, 17]: 2.38 ^1 mg/dl | erythrocytes mean values [6, 17]: 6.92^3 *10^6/mm^3 | Mortalitaty total [7, 18]: 28 ^3 | Mortality in percent [7, 18]: 80% | Anatomical pathology: lesions [7, 19]: did not improve lesions | Pb in urine, Pb mean values [7, 19]: 12.9 mg/L | Creatinine mean values [7, 20]: 0.78 ^4 mK/dl | Haematocrit mean values [7, 20]: 35.48 ^3 | Haemoglobin mean values [7, 20]: 15.86 ^3 g/dl | Leucocytes mean values [7, 20]: 16.36 ^3 | Urea mean values [7, 20]: 80.98 ^4 mg/dl | Uric acid mean value [7, 20]: 2.13 ^4 mg/dl | erythrocytes mean values [7, 20]: 6.93 ^3 *10^6/mm^3

[Cl][Hg][Cl] [mercury chloride]
solubility in water ([1]; water at 20° C.): 7.4 g/100 ml | LD50 per os ([2]; per os, rat where given): 42 mg/kg

Lead acetate trihydrate
LD50 per os ([2]; per os, rat where given): 4665 mg/kg
